Results from patent publication US5173493A, “Pyridoindole derivatives and processes for preparation thereof” (Fujisawa Pharmaceutical Company, Ltd., priority 1988, dated 1992).
Like-named read-outs stand apart in the source and are kept apart here.

Legend:
Benzold-Jarisch reflex = test: Inhibition of Benzold-Jarisch reflex; format: in vivo, Male Sprague-Dawley rats; conditions: Rattus norvegicus, 5 min, iv
Procedure: (A) Inhibition of Benzold-Jarisch reflex
Male Sprague-Dawley rats weighing 260-350 g were anesthetized intraperitoneally with 1.25 g/kg urethane.
Blood pressure and heart rate were monitored continuously from the left common carotid artery with a pressure transducer. A right femoral vein was connulated for the intravenous injection (iv) of drugs. The trachea was also connulated to ease the respiration.
Rats were given a rapid bolus injection of 2-methyl-5-hydroxytryptamine (32 μg/kg, iv) to establish the control bradycardic response. Once the heart rate returned to base line, the rats were given the test compound (iv), followed by 5-minutes interval and another bolus injection of 2-methyl-5-hydroxytryptamine (32 μg/kg, iv).

[1] = test system: Cisplatin-induced vomiting; test: Inhibition of Cisplatin-induced vomiting; format: in vivo, female beagles; conditions: Canis lupus familiaris; intravenously twice, 10 minutes prior to and 90 minutes after Cisplatin (3.2 mg/kg, iv); observed up to 5 hours
Procedure: (B) Inhibition of Cisplatin-induced vomiting
Nonfasted female beagles weighing about 10 kg were administered test compound or saline intravenously twice 10 minutes prior to and 90 minutes after Cisplatin dosing (3.2 mg/kg, iv).
Cisplatin was dissolved in 0.9% warm saline with a final concentration of 3 mg/ml and used immediately.

[2] = inhibition of bradycardic response to 2-methyl-5-hydroxytryptamine (32 μg/kg, iv), anesthetized rats, read-out: ED50

## Cc1[nH]cnc1CC1CCc2c(C)c3ccccc3n2C1=O.Cl (single isomer, unassigned; (+)) [Compound 3, (+)-8,9-Dihydro-10-methyl-7-[(5-methyl-1H-imidazol-4-yl)methyl]pyrido[1,2-a]indol-6(7H)-one hydrochloride]
Benzold-Jarisch reflex; [2]
  ED50: 0.9 µg/kg
[1]
  ED50: 1.1 µg/kg

## Cc1[nH]cnc1C(O)C1CCc2c(C)c3ccccc3n2C1=O.O=C(O)/C=C\C(=O)O (single isomer, unassigned; isomer b) [Compound 1, 8,9-Dihydro-7-[(hydroxy)(5-methyl-1H-imidazol-4-yl)methyl]-10-methylpyrido[1,2-a]indol-6(7H)-one maleate (isomer B)]
Benzold-Jarisch reflex; [2]
  ED50: 5.9 µg/kg

## Cc1c2n(c3ccccc13)C(=O)C(Cc1c[nH]cn1)CC2 (centres unmarked) [Compound 2, 8,9-Dihydro-7-[(1H-imidazol-4-yl)methyl]-10-methylpyrido[1,2-a]indol-6(7H)-one]
Benzold-Jarisch reflex
  ED50: 1.8 µg/kg

## Cc1[nH]cnc1CC1(C)CCc2c(C)c3ccccc3n2C1=O (centres unmarked) [Compound 4, 8,9-Dihydro-7,10-dimethyl-7-[(5-methyl-1H-imidazol-4-yl)methyl]pyrido[1,2-a]indol-6(7H)-one]
Benzold-Jarisch reflex; [2]
  ED50: 1.1 µg/kg
